Key:
Type in all cases: in vivo
[1] = test system: blackgrass (Alopecurus myosuroides); test: Test B postemergence; conditions: scale 0 to 100 (0 no effect, 100 complete control)
In short: (§1)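 Under greenhouse conditions, seeded pots and young plants (1- to 4-leaf, 2 to 18 cm) were treated at the same time with test chemicals in a non-phytotoxic solvent mixture containing surfactant. Response was assessed visually after 13 to 15 days, from 0 (no effect) to 100 (complete control).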

wild oat (Avena fatua) = test: Test B postemergence; conditions: scale 0 to 100 (0 no effect, 100 complete control)
In short: as §1

[2] = test system: velvetleaf (Abutilon theophrasti); test: Test B pre/postemergence; conditions: for Velvetleaf plant response rating: Postemergence; for Plant response rating, Velvetleaf: Preemergence
In short: as §1

[3] = test system: wheat (Triticum aestivum); test: Test B pre/postemergence; conditions: for Wheat plant response rating: Postemergence; for Plant response rating, Wheat: Preemergence
In short: as §1

[4] = test system: lambsquarters (Chenopodium album); test: Test B pre/postemergence; conditions: for Lambsquarters plant response rating: Postemergence; for Plant response rating, Lambsquarters: Preemergence
In short: as §1

[5] = test system: barnyardgrass (Echinochloa crus-galli); test: Test B pre/postemergence; conditions: for Barnyardgrass plant response rating: Postemergence; for Plant response rating, Barnyardgrass: Preemergence
In short: as §1

[6] = test system: crabgrass (Digitaria sanguinalis); test: Test B pre/postemergence; conditions: for Crabgrass plant response rating: Postemergence; for Plant response rating, Crabgrass: Preemergence
In short: as §1

corn (Zea mays) = test: Test B pre/postemergence; conditions: for Corn plant response rating: Postemergence; for Plant response rating, Corn: Preemergence
In short: as §1

[7] = test system: Surinam grass (Brachiaria decumbens); test: Test B pre/postemergence; conditions: for Surinam Grass plant response rating: Postemergence; for Plant response rating, Surinam Grass: Preemergence
In short: as §1

[8] = test system: cocklebur (Xanthium strumarium); test: Test B pre/postemergence; conditions: for Cocklebur plant response rating: Postemergence; for Plant response rating, Cocklebur: Preemergence
In short: as §1

[9] = test system: giant foxtail (Setaria faberii); test: Test B pre/postemergence; conditions: for Foxtail, Giant plant response rating: Postemergence; for Plant response rating, Foxtail, Giant: Preemergence
In short: as §1

[10] = test system: morningglory (Ipomoea coccinea); test: Test B pre/postemergence; conditions: for Morningglory plant response rating: Postemergence; for Plant response rating, Morningglory: Preemergence
In short: as §1

[11] = test system: pigweed (Amaranthus retroflexus); test: Test B pre/postemergence; conditions: for Pigweed plant response rating: Postemergence; for Plant response rating, Pigweed: Preemergence
In short: as §1

[12] = test system: duck salad (Heteranthera limosa); test: Test B flooded paddy test; conditions: Flood, scale 0 to 100
In short: (§2)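 Visual injury scoring (0 = no effect, 100 = complete control) versus controls made 13 to 15 days after treatment in the greenhouse. Test species were grown in flooded paddy to the 2-leaf stage: rice, barnyardgrass, umbrella sedge, duck salad.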

[13] = test system: barnyardgrass (Echinochloa crus-galli); test: Test B flooded paddy test; conditions: Flood, scale 0 to 100
In short: as §2

rice (Oryza sativa) = test: Test B flooded paddy test; conditions: Flood, scale 0 to 100
In short: as §2

[14] = test system: umbrella sedge (Cyperus difformis); test: Test B flooded paddy test; conditions: Flood, scale 0 to 100
In short: as §2

[15] = 62 g ai/ha, scale 0 to 100 (0 no effect, 100 complete control)
[16] = 125 g ai/ha, scale 0 to 100 (0 no effect, 100 complete control)
[17] = 62 g ai/ha, scale 0 to 100, 0 no effect, 100 complete control

Nc1nc(-c2ccc(Cl)cc2)nc(C(=O)[O-])c1Cl.[Na+] [Compound 117]
Blackgrass plant response rating ([1]; 62 g ai/ha): 60
Blackgrass plant response rating ([1]; 125 g ai/ha): 70
Oat, Wild plant response rating (wild oat (Avena fatua); 62 g ai/ha): 30
Oat, Wild plant response rating (wild oat (Avena fatua); 125 g ai/ha): 50
Velvetleaf plant response rating [2, 15]: 90
Velvetleaf plant response rating [2, 16]: 100
Plant response rating, Velvetleaf [2, 17]: 70
Plant response rating, Velvetleaf [2, 16]: 90
Wheat plant response rating [3, 15]: 50
Wheat plant response rating [3, 16]: 70
Plant response rating, Wheat [3, 17]: 50
Plant response rating, Wheat [3, 16]: 80
Lambsquarters plant response rating [4, 15]: 90
Lambsquarters plant response rating [4, 16]: 100
Plant response rating, Lambsquarters [4, 17]: 90
Plant response rating, Lambsquarters [4, 16]: 100
Barnyardgrass plant response rating [5, 15]: 90
Barnyardgrass plant response rating [5, 16]: 90
Plant response rating, Barnyardgrass [5, 17]: 10
Plant response rating, Barnyardgrass [5, 16]: 30
Crabgrass plant response rating [6, 15]: 60
Crabgrass plant response rating [6, 16]: 80
Plant response rating, Crabgrass [6, 17]: 90
Plant response rating, Crabgrass [6, 16]: 90
Corn plant response rating (corn (Zea mays); [15]): 90
Corn plant response rating (corn (Zea mays); [16]): 90
Plant response rating, Corn (corn (Zea mays); [17]): 0
Plant response rating, Corn (corn (Zea mays); [16]): 10
Surinam Grass plant response rating [7, 15]: 70
Surinam Grass plant response rating [7, 16]: 70
Plant response rating, Surinam Grass [7, 17]: 80
Plant response rating, Surinam Grass [7, 16]: 100
Cocklebur plant response rating [8, 15]: 100
Cocklebur plant response rating [8, 16]: 100
Plant response rating, Cocklebur [8, 17]: 50
Plant response rating, Cocklebur [8, 16]: 90
Foxtail, Giant plant response rating [9, 15]: 80
Foxtail, Giant plant response rating [9, 16]: 80
Plant response rating, Foxtail, Giant [9, 17]: 20
Plant response rating, Foxtail, Giant [9, 16]: 90
Morningglory plant response rating [10, 15]: 80
Morningglory plant response rating [10, 16]: 100
Plant response rating, Morningglory [10, 17]: 10
Plant response rating, Morningglory [10, 16]: 20
Pigweed plant response rating [11, 15]: 100
Pigweed plant response rating [11, 16]: 100
Plant response rating, Pigweed [11, 17]: 100
Plant response rating, Pigweed [11, 16]: 100
Plant response rating, Ducksalad ([12]; 125 g ai/ha): 100
Plant response rating, Ducksalad ([12]; 500 g ai/ha): 100
Plant response rating, Barnyardgrass ([13]; 125 g ai/ha): 20
Plant response rating, Barnyardgrass ([13]; 500 g ai/ha): 70
Plant response rating, Rice (rice (Oryza sativa); 125 g ai/ha): 20
Plant response rating, Rice (rice (Oryza sativa); 500 g ai/ha): 50
Plant response rating, Sedge, Umbrella ([14]; 125 g ai/ha): 80
Plant response rating, Sedge, Umbrella ([14]; 500 g ai/ha): 90

Nc1nc(-c2ccc(Cl)cc2)nc(C(=O)O)c1Br [Compound 88]
Blackgrass plant response rating ([1]; 62 g ai/ha): 40
Blackgrass plant response rating ([1]; 125 g ai/ha): 60
Oat, Wild plant response rating (wild oat (Avena fatua); 62 g ai/ha): 40
Oat, Wild plant response rating (wild oat (Avena fatua); 125 g ai/ha): 50
Velvetleaf plant response rating [2, 15]: 90
Velvetleaf plant response rating [2, 16]: 100
Plant response rating, Velvetleaf [2, 17]: 70
Plant response rating, Velvetleaf [2, 16]: 90
Wheat plant response rating [3, 15]: 50
Wheat plant response rating [3, 16]: 60
Plant response rating, Wheat [3, 17]: 50
Plant response rating, Wheat [3, 16]: 70
Lambsquarters plant response rating [4, 15]: 100
Lambsquarters plant response rating [4, 16]: 100
Barnyardgrass plant response rating [5, 15]: 90
Barnyardgrass plant response rating [5, 16]: 90
Crabgrass plant response rating [6, 15]: 70
Crabgrass plant response rating [6, 16]: 80
Plant response rating, Crabgrass [6, 17]: 50
Plant response rating, Crabgrass [6, 16]: 70
Corn plant response rating (corn (Zea mays); [15]): 70
Corn plant response rating (corn (Zea mays); [16]): 80
Plant response rating, Corn (corn (Zea mays); [17]): 0
Plant response rating, Corn (corn (Zea mays); [16]): 10
Surinam Grass plant response rating [7, 15]: 80
Surinam Grass plant response rating [7, 16]: 80
Plant response rating, Surinam Grass [7, 17]: 20
Plant response rating, Surinam Grass [7, 16]: 50
Cocklebur plant response rating [8, 15]: 100
Cocklebur plant response rating [8, 16]: 100
Plant response rating, Cocklebur [8, 17]: 60
Plant response rating, Cocklebur [8, 16]: 90
Foxtail, Giant plant response rating [9, 15]: 60
Foxtail, Giant plant response rating [9, 16]: 70
Plant response rating, Foxtail, Giant [9, 17]: 10
Plant response rating, Foxtail, Giant [9, 16]: 30
Morningglory plant response rating [10, 15]: 60
Morningglory plant response rating [10, 16]: 90
Plant response rating, Morningglory [10, 17]: 0
Plant response rating, Morningglory [10, 16]: 10
Pigweed plant response rating [11, 15]: 100
Pigweed plant response rating [11, 16]: 100
Plant response rating, Ducksalad ([12]; 125 g ai/ha): 90
Plant response rating, Ducksalad ([12]; 500 g ai/ha): 90
Plant response rating, Barnyardgrass ([13]; 125 g ai/ha): 0
Plant response rating, Barnyardgrass ([13]; 500 g ai/ha): 0
Plant response rating, Rice (rice (Oryza sativa); 125 g ai/ha): 0
Plant response rating, Rice (rice (Oryza sativa); 500 g ai/ha): 0
Plant response rating, Sedge, Umbrella ([14]; 125 g ai/ha): 60
Plant response rating, Sedge, Umbrella ([14]; 500 g ai/ha): 90

— patent US8802597B2, “Herbicidal pyrimidines” (E I du Pont de Nemours and Company, priority 2003, dated 2014)
